Two compounds from patent publication EP2092932A2, “Processes to pre-treat hair with organic solvents” (The Procter and Gamble Company, priority 2006, dated 2008) can be followed below.

A short description of the assay: Hair treatment protocol: solvent pre-treatment before oxidative dyeing, colour strength K/S measured by spectrophotometer. The following applies: for K/.S vs. DI Water: switch soaked 5 minutes in neat solvent, then level 3 oxidative hair colorant (Nice n' Easy) 30 minutes at 30°C, dye uptake change vs. DI water.

`OCCOCCO` [Diethyleneglycol]: the “K/.S vs. DI Water” value is -50%.
For the compound `OCC(O)CO` [Glycerine], the “K/.S vs. DI Water” value is reported as -40%. Also, the “K/S vs. DI Water” value (Glycerine Content 10 % wt. in deionised water as pre-treatment composition) is on record as -2%. Further, the “K/S vs. DI Water” value (Glycerine Content 25 % wt. in deionised water as pre-treatment composition) is listed as -4%. Further, under “Glycerine Content 50 % wt. in deionised water as pre-treatment composition”, the “K/S vs. DI Water” value is -20%. The “K/S vs. DI Water” value (Glycerine Content 70 % wt. in deionised water as pre-treatment composition) was -43%.
